Laboratory results taken from patent US12059471B2, “Complex” (UNITED IMMUNITY, CO., LTD., priority 2020, dated 2024).
In the oligonucleotide strings, read from the 5' end, every base follows the letter of its sugar. An asterisk marks phosphorothioate; unmarked linkages are phosphodiester. Other units and linkages are bracketed, terminal groups are in braces. A string of capitals states the bases alone. {Chol-TEG} = cholesterol attached through a triethylene glycol linker; d = 2'-deoxy (DNA)

Assay: Complexation evaluation by size exclusion chromatography (SEC/HPLC)
Assay type: physicochemical
Details: Chol-CpG 20 uM, SEC, UV 260 nm, PBS
Method: As complexation evaluation of the Chol-CpG (K3)/CHP nanogel complex sample prepared in Test Example 1-5, size exclusion chromatography (SEC) was carried out. The conditions were as follows. Column: G3000SWXL (Tosoh Corporation), 7.8 mm×150 mm, detector: UV (260 nm), column detection temperature: 35° C., injection amount: 20 uL, flow rate: 0.5 mL/min, eluent: PBS (pH: 7.4). Using PBS as an eluent, the eluate was detected at 260 nm, which was an absorption wavelength specific to CpG, which was a nucleic acid adjuvant.
As the complexation evaluation of the Chol-CpG (D35)/CHP nanogel complex sample prepared in Test Example 2-3, size exclusion chromatography (SEC) was carried out in the same manner as in Test Example 1-6.

For “Chol-CpG (D35): Cholesterol linked to 5′-end of D35 CpG oligonucleotide (SEQ ID NO 2) through a triethylene glycol linker (DNA {Chol-TEG}-dG*dGdTdGdCdAdTdCdGdAdTdGdCdAdGdGdGdG*dG*dG)”, the “complexed ratio with the nanogel” value (CHP nanogel 40 uM, molar ratio nanogel:Chol-CpG 2:1) was about 100% and the “complexed ratio with the nanogel” value (molar ratio nanogel:Chol-CpG 1:1) was “about 90%”.
